{"source": "patent US20250268873A1", "about": "“COMBINATION OF DUAL ATM AND DNA-PK INHIBITORS AND IMMUNOTHERAPEUTIC AGENTS FOR USE IN CANCER THERAPY” (XRAD THERAPEUTICS, INC., priority 2021, published 2025)", "key": {"mTOR": {"target": "mTOR (Homo sapiens, UniProt P42345)", "experiment": "mTOR Biochemical Assay (LanthaScreen TR-FRET)", "conditions": "ATP 3 μM", "experimental": "mTOR Kinase reactions were performed in a 10 μL volume in low-volume 384-well plates. Typically, PerkinElmer model 6008260 plates were used. The composition of the 1× kinase reaction buffer was: 50 mM HEPES pH 7.5, 0.01% Tween 20, 1 mM EGTA, 10 mM MnCl2, and 2 mM DTT. The solution of mTOR enzyme (ThermoFisher, #PR8683B; the final mTOR concentration: 0.5 μg/mL) was added, and the compounds were serially diluted to the final maximal concentration of 100 nM (3 fold series dilution, a total of 10 doses). GFP-4E-BP1 (the final concentration: 0.4 μM) and the ATP solution (the final ATP concentration: 3 μM) were added to the 384-well plate. The plate was incubated at 25° C. for 1 hour, and 10 μL of the EDTA solution (20 mM) and Tb-labeled anti-p4E-BP1 antibody (4 nM) in TR-FRET dilution buffer were added to each well. The plate was sealed, incubated 30 min at 25° C., and read on a plate reader configured for LanthaScreen™ TRFRET."}, "MDA-MB-231 tumors": {"tested_on": "MDA-MB-231 tumors", "experiment": "In vivo tumor growth delay study, MDA-MB-231 subcutaneous human xenograft mouse model", "experimental": "Female NCr nu/nu mice (Crl:NU(NCr)-Foxn1nu, Strain 490) were obtained from Charles River at 5-6 weeks of age.\nFADU or MDA-MB-231 cells were harvested during log phase growth for in vivo implantation. The resuspended cells were washed three times in phosphate buffered saline (PBS) before preparing the working dilution in PBS. FADU cells were diluted to 1×10^7 cells/mL and MDA-MB-231 cells were diluted to 5×10^7 cells/mL. Each mouse was injected subcutaneously in the right flank with 100 μL of the cellular suspension. Tumor growth was monitored until the tumors reached a target volume of at least 100 mm^3, at which point mice were randomly stratified into four treatment groups.\nFollowing implantation of the tumor cell lines, mice were monitored once weekly for tumor development. Upon detection, tumors were measured in two dimensions using digital calipers. Tumors were treated after reaching at least 100 mm^3 and were measured two to three times weekly following enrollment in one of the treatment groups. The study endpoint was defined as tumor quintupling from the volume at time of treatment.\nThe vehicle used in this study was 0.5% (Hydroxypropyl)methyl cellulose (HPMC) and 0.2% Tween80 dissolved in deionized water. The pH of the vehicle was adjusted to 7.0-8.0 and the vehicle was stored at 4° C. On each day of in vivo treatment an appropriate mass of test compound was added to the vehicle at room temperature. The mixture was vortexed as necessary to generate a final concentration of 1.6 mg/mL.\nIn vivo tumor growth delay study was performed as follows. Following implantation of the tumor cell lines, mice were monitored once weekly for tumor development. Upon development of a tumor measuring at least 100 mm^3, tumor-bearing mice were stratified to one of 4 groups, utilizing 5 mice per group. Tumor volumes were between 100 and 500 mm^3. Vehicle or compound 569 (10 mg/kg) were administered by oral gavage once daily for three consecutive days (qd×3), alone or in combination with focal radiation. The delivered volume of vehicle or compound 569 was adjusted based on body weight of the individual animals. […]\nPrism (GraphPad) was used for graphical presentations. […] In order to adjust for the differing tumor sizes at the start of treatment, the relative tumor volume was calculated by dividing the tumor volume at each time point by the volume at baseline. […] When an animal exited the study due to tumor quintupling, the final tumor volume recorded for the animal was included with the data used to calculate the median volume at subsequent time points. […] Differences in quintupling-free survival between the four treatment groups were evaluated with a log-rank test. […]"}}}
{"compound": "CC(C)NCCOc1ncc(-c2cc3c4c(cnc3cc2F)N(C)C(=O)C42CCC2)cc1NS(C)(=O)=O", "note": "[Compound 569, N-(5-(7′-Fluoro-3′-methyl-2′-oxo-2′,3′-dihydrospiro[cyclobutane-1,1′-pyrrolo[2,3-c]quinolin]-8′-yl)-2-(2-(isopropylamino)ethoxy)pyridin-3-yl)methanesulfonamide]", "values": [{"measurement": "IC50", "setting": "mTOR", "result": "> 100", "unit": "nM"}, {"measurement": "median time to endpoint (tumor quintupling)", "setting": "MDA-MB-231 tumors; Group 2: compound 569 10 mg/kg po qd×3 alone", "result": 17, "unit": "days"}, {"measurement": "tumor growth curves and quintupling-free survival", "setting": "MDA-MB-231 tumors; Group 2: compound 569 10 mg/kg qd×3 alone vs vehicle (Group 1)", "result": "nearly identical to those for Group 1"}, {"measurement": "median time to endpoint (tumor quintupling)", "setting": "MDA-MB-231 tumors; Group 4: compound 569 10 mg/kg 45 min prior to 3 Gy focal radiation, qd×3", "result": 43, "unit": "days"}, {"measurement": "overall survival (quintupling-free)", "setting": "MDA-MB-231 tumors; Group 4: compound 569 + 3 Gy qd×3, P<0.01, logrank", "result": "significantly improved compared to Group 1, Group 2, and Group 3"}]}
